In PubChem BioAssay (NCI):
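Cultured in 96-well plates, cells were exposed to test compound for 48 hours across five concentrations. GI50 marks 50% less growth. TGI marks complete inhibition of growth.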

Assays:
Test in all cases: NCI anticancer screen, dose series, 48 h
[1] = system: 786-0 renal
[2] = system: A498 renal
[3] = system: A549 NSCLC
[4] = system: ACHN renal
[5] = system: BT-549 breast
[6] = system: CAKI-1 renal
[7] = system: COLO 205 colon
[8] = system: DU-145 prostate
[9] = system: EKVX NSCLC
[10] = system: HCC-2998 colon
[11] = system: HCT-116 colon
[12] = system: HCT-15 colon
[13] = system: HL-60(TB) leukemia
[14] = system: HOP-62 NSCLC
[15] = system: HOP-92 NSCLC
[16] = system: HS 578T breast
[17] = system: HT29 colon
[18] = system: IGROV1 ovarian
[19] = system: K-562 leukemia
[20] = system: KM12 colon
[21] = system: LOX IMVI melanoma
[22] = system: M14 melanoma
[23] = system: MALME-3M melanoma
[24] = system: MCF7 breast
[25] = system: MDA-MB-231 breast
[26] = system: MDA-MB-435
[27] = system: MOLT-4 leukemia
[28] = system: NCI-H226 lung
[29] = system: NCI-H23 lung
[30] = system: NCI-H460 lung
[31] = system: NCI-H522 lung
[32] = system: NCI/ADR-RES ovarian
[33] = system: OVCAR-3 ovarian
[34] = system: OVCAR-4 ovarian
[35] = system: OVCAR-5 ovarian
[36] = system: OVCAR-8 ovarian
[37] = system: PC-3 prostate
[38] = system: RPMI-8226 leukemia
[39] = system: RXF 393 renal
[40] = system: SF-268 CNS
[41] = system: SF-295 CNS
[42] = system: SF-539 CNS
[43] = system: SK-MEL-2 melanoma
[44] = system: SK-MEL-28 melanoma
[45] = system: SK-MEL-5 melanoma
[46] = system: SK-OV-3 ovarian
[47] = system: SN12C renal
[48] = system: SNB-19 CNS
[49] = system: SNB-75 CNS
[50] = system: SR leukemia
[51] = system: SW-620 colon
[52] = system: T-47D breast
[53] = system: TK-10 renal
[54] = system: U251 CNS
[55] = system: UACC-257 melanoma
[56] = system: UACC-62 melanoma
[57] = system: UO-31 renal
[58] = system: CCRF-CEM leukemia
[59] = system: MDA-N

O=C(O)C1C(Br)(c2ccccc2)C1(Br)c1ccccc1 (stereo unspecified)
TGI [1]: > 100 µM
TGI [2]: 83.8 µM
TGI [3]: > 100 µM
TGI [4]: 57 µM
TGI [5]: 49.5 µM
TGI [6]: 81.9 µM
TGI [7]: 37.8 µM
TGI [8]: > 100 µM
TGI [9]: > 100 µM
TGI [10]: 53.7 µM
TGI [11]: > 100 µM
TGI [12]: 47.5 µM
TGI [13]: > 100 µM
TGI [14]: > 100 µM
TGI [15]: > 100 µM
TGI [16]: > 100 µM
TGI [17]: 59 µM
TGI [18]: > 100 µM
TGI [19]: > 100 µM
TGI [20]: > 100 µM
TGI [21]: > 100 µM
TGI [22]: > 100 µM
TGI [23]: > 100 µM
TGI [24]: > 100 µM
TGI [25]: > 100 µM
TGI [26]: > 100 µM
TGI [27]: > 100 µM
TGI [28]: > 100 µM
TGI [29]: > 100 µM
TGI [30]: > 100 µM
TGI [31]: 43.9 µM
TGI [32]: > 100 µM
TGI [33]: > 100 µM
TGI [34]: 64.1 µM
TGI [35]: > 100 µM
TGI [36]: 84.6 µM
TGI [37]: > 100 µM
TGI [38]: 74.1 µM
TGI [39]: 41.7 µM
TGI [40]: 69.7 µM
TGI [41]: > 100 µM
TGI [42]: > 100 µM
TGI [43]: 80.2 µM
TGI [44]: 52.6 µM
TGI [45]: 88.8 µM
TGI [46]: 81 µM
TGI [47]: > 100 µM
TGI [48]: > 100 µM
TGI [49]: 93.9 µM
TGI [50]: > 100 µM
TGI [51]: > 100 µM
TGI [52]: > 100 µM
TGI [53]: > 100 µM
TGI [54]: > 100 µM
TGI [55]: > 100 µM
TGI [56]: 64.3 µM
TGI [57]: 47.2 µM

Cn1c(=O)c(Cc2ccccc2F)cc2cnc(NC3CCOCC3)nc21
GI50 [1]: > 25 µM
TGI [1]: > 25 µM
GI50 [2]: > 25 µM
TGI [2]: > 25 µM
GI50 [3]: > 25 µM
TGI [3]: > 25 µM
GI50 [4]: > 25 µM
TGI [4]: > 25 µM
GI50 [5]: > 25 µM
TGI [5]: > 25 µM
GI50 [6]: > 25 µM
TGI [6]: > 25 µM
GI50 [58]: > 25 µM
TGI [58]: > 25 µM
GI50 [7]: > 25 µM
TGI [7]: > 25 µM
GI50 [8]: > 25 µM
TGI [8]: > 25 µM
GI50 [10]: > 25 µM
TGI [10]: > 25 µM
GI50 [11]: > 25 µM
TGI [11]: > 25 µM
GI50 [12]: > 25 µM
TGI [12]: > 25 µM
GI50 [13]: > 25 µM
TGI [13]: > 25 µM
GI50 [14]: > 25 µM
TGI [14]: > 25 µM
GI50 [15]: 4.91 µM
TGI [15]: > 25 µM
GI50 [16]: > 25 µM
TGI [16]: > 25 µM
GI50 [17]: > 25 µM
TGI [17]: > 25 µM
GI50 [18]: > 25 µM
TGI [18]: > 25 µM
GI50 [19]: > 25 µM
TGI [19]: > 25 µM
GI50 [20]: > 25 µM
TGI [20]: > 25 µM
GI50 [21]: > 25 µM
TGI [21]: > 25 µM
GI50 [22]: > 25 µM
TGI [22]: > 25 µM
GI50 [23]: > 25 µM
TGI [23]: > 25 µM
GI50 [24]: > 25 µM
TGI [24]: > 25 µM
GI50 [25]: > 25 µM
TGI [25]: > 25 µM
GI50 [26]: > 25 µM
TGI [26]: > 25 µM
GI50 [27]: > 25 µM
TGI [27]: > 25 µM
GI50 [28]: > 25 µM
TGI [28]: > 25 µM
GI50 [29]: > 25 µM
TGI [29]: > 25 µM
GI50 [30]: > 25 µM
TGI [30]: > 25 µM
GI50 [31]: > 25 µM
TGI [31]: > 25 µM
GI50 [32]: > 25 µM
TGI [32]: > 25 µM
GI50 [33]: > 25 µM
TGI [33]: > 25 µM
GI50 [34]: > 25 µM
TGI [34]: > 25 µM
GI50 [35]: > 25 µM
TGI [35]: > 25 µM
GI50 [36]: > 25 µM
TGI [36]: > 25 µM
GI50 [37]: > 25 µM
TGI [37]: > 25 µM
GI50 [38]: > 25 µM
TGI [38]: > 25 µM
GI50 [39]: > 18.4 µM
TGI [39]: > 25 µM
GI50 [40]: > 25 µM
TGI [40]: > 25 µM
GI50 [41]: > 25 µM
TGI [41]: > 25 µM
GI50 [42]: > 25 µM
TGI [42]: > 25 µM
GI50 [43]: > 25 µM
TGI [43]: > 25 µM
GI50 [44]: > 25 µM
TGI [44]: > 25 µM
GI50 [45]: > 25 µM
TGI [45]: > 25 µM
GI50 [46]: > 25 µM
TGI [46]: > 25 µM
GI50 [47]: > 25 µM
TGI [47]: > 25 µM
GI50 [48]: > 25 µM
TGI [48]: > 25 µM
GI50 [49]: > 8.48 µM
TGI [49]: > 25 µM
GI50 [50]: > 25 µM
TGI [50]: > 25 µM
GI50 [51]: > 25 µM
TGI [51]: > 25 µM
GI50 [52]: > 25 µM
TGI [52]: > 25 µM
GI50 [53]: > 25 µM
TGI [53]: > 25 µM
GI50 [54]: > 25 µM
TGI [54]: > 25 µM
GI50 [55]: > 25 µM
TGI [55]: > 25 µM
GI50 [56]: > 25 µM
TGI [56]: > 25 µM
GI50 [57]: > 20.4 µM
TGI [57]: > 25 µM

COC(=O)C1CCCN1C(=O)C(Cc1cn(S(=O)(=O)c2ccc(C)cc2)cn1)NC(=O)OC(C)(C)C (stereo unspecified)
TGI [1]: > 100 µM
TGI [2]: > 100 µM
TGI [3]: > 100 µM
TGI [4]: > 100 µM
TGI [5]: > 100 µM
TGI [58]: > 100 µM
TGI [9]: > 100 µM
TGI [10]: > 100 µM
TGI [11]: > 100 µM
TGI [12]: > 100 µM
TGI [13]: > 100 µM
TGI [14]: > 100 µM
TGI [15]: > 100 µM
TGI [16]: > 100 µM
TGI [17]: > 100 µM
TGI [18]: > 100 µM
TGI [19]: > 100 µM
TGI [20]: > 100 µM
TGI [22]: > 100 µM
TGI [23]: > 100 µM
TGI [24]: > 100 µM
TGI [25]: > 100 µM
TGI [59]: > 100 µM
TGI [27]: > 100 µM
TGI [28]: > 100 µM
TGI [29]: > 100 µM
TGI [30]: > 100 µM
TGI [35]: > 100 µM
TGI [36]: > 100 µM
TGI [37]: > 100 µM
TGI [38]: > 100 µM
TGI [39]: > 100 µM
TGI [43]: > 100 µM
TGI [44]: > 100 µM
TGI [45]: > 100 µM
TGI [47]: > 100 µM
TGI [48]: > 100 µM
TGI [49]: > 100 µM
TGI [50]: > 100 µM
TGI [51]: > 100 µM
TGI [53]: > 100 µM
TGI [54]: > 100 µM
TGI [55]: > 100 µM
TGI [56]: > 100 µM
TGI [57]: > 100 µM
